The test system of the assay is hPSCs. The assay is described as follows: Monolayer endothelial differentiation of hPSCs in defined medium, flow cytometry at day 10. In kind it is cell-based, human. The settings on record: VEGF together with SB-431542 5 μM from day 3, versus VEGF only; average over several cell lines. The text has this: hiPSC lines were generated from Fib or BOECs using conditional lentiviral vectors containing the four transcription factors oct4, c-myc, Klf4 and Sox2, and characterized as described previously (Dambrot et al., 2013; Freund et al., 2008; Orlova et al., manuscript in preparation). hiPSCs and hESC (line HES-NL4; (van de Stolpe et al., 2005)) were routinely maintained on growth factor reduced MATRIGEL®-(BD, 354230) coated plates in mTeSR media (StemCell Technologies, 05850) and passaged mechanically. Differentiation was induced three days after passaging colonies by replacing mTeSR medium with the differentiation media based on BPEL (without PVA) (Ng et al., 2008) with timed addition of the following growth factors: 25 ng/ml ActivinA (Miltenyi, 130-095-547), 30 ng/ml BMP4 (Miltenyi, 130-095-549), VEGF165 (R&D Systems, 293-VE) and small molecule inhibitor CHIR99021 (Tocris, 4423). At day 3 and day 7 of differentiation, the media was refreshed with BPEL containing VEGF and 5 μM SB43152 (Tocris, 1614) only.
Cells were dissociated with TrypLE Select and washed once with the FACs buffer with the 10% FBS, followed by the single wash with the FACs buffer. […] In some experiment samples were analyzed with the MACSQuant VYB (Miltenyi). […]
(In general: Flow cytometry measures light scatter and fluorescence of single cells or particles in a stream.)

Each structure is given as a SMILES string.

For the compound `NC(=O)c1ccc(-c2nc(-c3ccc4c(c3)OCO4)c(-c3ccccn3)[nH]2)cc1` [SB431542, reference compound], the “increase in the yield of ECs” value was found to be 30%.

For the origin of these results see patent US10119122B2, “Differentiation and expansion of endothelial cells from pluripotent stem cells and the in vitro formation of vasculature like structures” (Academisch Ziekenhuis Leiden, priority 2013, dated 2018).
